Laboratory results from patent publication US5496856A, “Aspartame for its application as a therapeutically active substance” (priority 1993, dated 1996).

What was measured:
[1] = system: DNA; test: DNA adducts by postlabeling with ATP gamma 32P in organs (genotoxicity); format: in vivo, rats; settings: OTA 289 μg/kg every 48 h, 3 weeks
Method: The animals used in this experiment are male rats of the Wistar strain weighing 160±10 g.
The aspartame is administered by gavage, at the same time as the ochratoxin A, every 48 hours for 3 weeks.
The control and treated rats are placed in a metabolic cage for 24 hours for urine sampling and then sacrificed.
The organs of the same animals were used for extraction of the DNA, which was analyzed by the technique of postlabeling with ATP gamma 32P in order to evaluate the genotoxicity by the presence of adducts with DNA bases.

[2] = system: human plasma proteins; test: OTA binding to human plasma proteins, condition (ii): OTA with or without aspartame in lower compartment; format: in vitro ADME
Method: (§1) A further study was performed in order to determine the effect of aspartame on OTA binding on human plasma proteins in vitro.
(§2) An in-vitro study was performed on plasma samples obtained from healthy human volunteers, from a French blood bank (Centre de transfusion sanguine in Bordeaux), using citrate as anticoagulant. Blood samples were centrifuged at 1800 g for 30 minutes. This pooled human plasma contained 41±3 g of proteins per liter.
(§3) Static diffusion cells (polypropylene, homemade according to the model provided by Nalgene, USA) containing two compartments (upper and lower) separated by a dialysing membrane having a 10 000 D exclusion limit (Sigma Chemical, USA) were used. This membrane allows OTA and aspartame diffusion and not protein diffusion.
(§4) A human plasma sample was placed in the upper compartment and a medium (RPMI 1640, Sigma chemical, USA) in the lower one.
(§5) The plasma binding properties of OTA were evaluated under two different conditions:
(ii) The upper compartment contained human plasma proteins only and OTA (20, 100 and 500 μg/ml) was added into the lower compartment alone or concommitantly with 10 μg/ml aspartame.
(§6) OTA concentration in the upper compartment was determined by HPLC (Mobile phase: methanol, acetonitrile, acetic acid, sodium acetate 5 mM (300: 300: 400: 14 v/v/v/v); injection volume 50 μl; flow rate 1 ml/min; run time for one cycle: 10 min and fluorescence detection (excitation at 340 nm and emission at 465 nm).
(§7) Before extraction of OTA from the plasma, all the studied samples of plasma, which had already fixed OTA, were dialysed against free OTA RPMI medium for at least 15 minutes, one or several times, until no more OTA was found in the lower compartment.
(§8) The results obtained under condition (i) as defined hereinabove are reported in Table I, whereas the results obtained under condition (ii) are reported in Table II.
Under condition (ii) (Table II), the aspartame was put in the same compartment as OTA in the non-plasmatic compartment to mimic the stomach (the ration OTA/aspartame=1.5 to 36).

[3] = system: human plasma proteins; test: OTA binding to human plasma proteins, condition (i): aspartame in upper (plasma) compartment; format: in vitro ADME
Method: as §1, §2, §3, §4, §5
(i) The aspartame at a concentration of 10 μg/ml was added in the upper compartment containing human plasma proteins before introducing OTA at three different concentrations (20, 100, and 500 μg/ml) in the lower compartment;
as §6, §7, §8

[4] = system: all animal species; settings: cited from earlier work; for toxicity: background statement
[5] = cited from earlier work; for efficacy in treatment of ochratoxicosis: doses of the order of several grams per day

C[C@@H]1Cc2c(Cl)cc(C(=O)N[C@@H](Cc3ccccc3)C(=O)O)c(O)c2C(=O)O1 [OTA, chlorodihydroisocoumarinylphenylalanine, reference compound]
DNA adducts in organs (liver, kidney, spleen, etc.), OTA-treated animals [1]: Adducts are detected in large numbers
Quantities of OTA bound to plasma proteins, OTA alone (Table II) ([2]; OTA 20 μg/ml, 30 min): 163 ± 42 ng/mL
Quantities of OTA bound to plasma proteins, OTA alone (Table II) ([2]; OTA 20 μg/ml, 60 min): 488 ± 41 ng/mL
Quantities of OTA bound to plasma proteins, OTA alone (Table II) ([2]; OTA 20 μg/ml, 120 min): 774 ± 43 ng/mL
Quantities of OTA bound to plasma proteins, OTA alone (Table II) ([2]; OTA 100 μg/ml, 30 min): 491 ± 39 ng/mL
Quantities of OTA bound to plasma proteins, OTA alone (Table II) ([2]; OTA 100 μg/ml, 60 min): 983 ± 48 ng/mL
Quantities of OTA bound to plasma proteins, OTA alone (Table II) ([2]; OTA 100 μg/ml, 120 min): 1296 ± 61 ng/mL
Quantities of OTA bound to plasma proteins, OTA alone (Table II) ([2]; OTA 500 μg/ml, 30 min): 539 ± 41 ng/mL
Quantities of OTA bound to plasma proteins, OTA alone (Table II) ([2]; OTA 500 μg/ml, 60 min): 1347 ± 92 ng/mL
Quantities of OTA bound to plasma proteins, OTA alone (Table II) ([2]; OTA 500 μg/ml, 120 min): 1899 ± 89 ng/mL
Quantities of OTA bound to plasma proteins, OTA alone (Table I) ([3]; OTA 20 μg/ml, 30 min): 215 ± 11 ng/mL
Quantities of OTA bound to plasma proteins, OTA alone (Table I) ([3]; OTA 20 μg/ml, 60 min): 431 ± 18 ng/mL
Quantities of OTA bound to plasma proteins, OTA alone (Table I) ([3]; OTA 20 μg/ml, 120 min): 772 ± 25 ng/mL
Quantities of OTA bound to plasma proteins, OTA alone (Table I) ([3]; OTA 100 μg/ml, 30 min): 442 ± 21 ng/mL
Quantities of OTA bound to plasma proteins, OTA alone (Table I) ([3]; OTA 100 μg/ml, 60 min): 739 ± 17 ng/mL
Quantities of OTA bound to plasma proteins, OTA alone (Table I) ([3]; OTA 100 μg/ml, 120 min): 1231 ± 17 ng/mL
Quantities of OTA bound to plasma proteins, OTA alone (Table I) ([3]; OTA 500 μg/ml, 30 min): 556 ± 15 ng/mL
Quantities of OTA bound to plasma proteins, OTA alone (Table I) ([3]; OTA 500 μg/ml, 60 min): 1175 ± 71 ng/mL
Quantities of OTA bound to plasma proteins, OTA alone (Table I) ([3]; OTA 500 μg/ml, 120 min): 1744 ± 112 ng/mL

C[C@@H]1Cc2c(Cl)cc(C(=O)N[C@@H](Cc3ccc(O)cc3)C(=O)O)c(O)c2C(=O)O1 [Tyrosine-OTA]
genotoxic effects ([4]; metabolite of OTA, Creppy et al., Arch. Toxicol. 64, 279-284 (1990)): seems to be one of the metabolites responsible for the genotoxic effects

C[C@@H]1Cc2ccc(C(=O)N[C@@H](Cc3ccccc3)C(=O)O)c(O)c2C(=O)O1 [ochratoxin B]
toxicity [4]: does not seem to be toxic

CCOC(=O)[C@H](Cc1ccccc1)NC(=O)c1cc(Cl)c2c(c1O)C(=O)O[C@H](C)C2 [ochratoxin C, ethyl ester of ochratoxin A]
toxicity [4]: effects comparable to those of ochratoxin A

N[C@@H](Cc1ccccc1)C(=O)O [phenylalanine]
action in chronic intoxication ([5]; chronic intoxication): very inadequate, if not non-existent
efficacy in treatment of ochratoxicosis [5]: not totally satisfactory
acute toxic effects of OTA and inhibition of protein synthesis ([5]; in vivo and in vitro): makes it possible to prevent the acute toxic effects and the inhibition of protein synthesis

O=C(O)O [sodium bicarbonate]
efficacy in treatment of ochratoxicosis [5]: still poor
